Results taken from patent US20250169498A1, “SYNERGISTIC FUNGICIDAL INTERACTIONS OF A PICOLINAMIDE FUNGICIDE WITH OTHER FUNGICIDES AGAINST ASIAN SOYBEAN RUST” (CORTEVA AGRISCIENCE LLC, priority 2020, published 2025).

Legend:
[1] = system: Phakopsora pachyrhizi, PHAKPA; assay: 1-day protectant (1 DP) PHAKPA test on soybean seedlings; type: in vivo; conditions: alone; for pest or weed control at 0.006 ppm: rate 0.006 ppm; for pest or weed control at 0.024 ppm: rate 0.024 ppm; for pest or weed control at 0.0015 ppm: rate 0.0015 ppm; for pest or weed control at 0.049 ppm: rate 0.049 ppm; for pest or weed control at 12.5 ppm: rate 12.5 ppm
Method: (§1) Fungicides were evaluated vs. PHAKPA either alone or in binary or ternary mixtures by combining each fungicide with Compound I. Technical grades of materials were dissolved in 1.5 ml of acetone, which were then mixed with 13.5 ml of water containing 0.011% Tween 20. The fungicide solutions were applied onto soybean seedlings using an automated booth sprayer to run-off. All sprayed plants were allowed to air dry prior to further handling. Soybean plants (variety Williams 82) were grown in soil-less Metro mix, with one plant per pot. Two weeks old seedlings were used for testing. Plants were inoculated either 3 days prior to or 1 day after fungicide treatments. Plants were incubated for 24 h in a dark dew room at 22° C. and 100% RH then transferred to a growth room at 23° C. for disease to develop. Once disease fully expressed on untreated plants, disease severity was assessed on the sprayed monofoliate leaves.
(§2) Synergy factors were calculated using Colby's method. The expected disease control (% DC exp) of a mixture consisting of two or three components can be predicted by the following formula: […]
(§3) where A, B, C are the percent disease control given by the individual fungicide component at the defined rate in the mixture. If the ratio (synergy factor) between the observed disease control of the mixture (% DCobs) and the expected disease control of the mixture (% DCexp) is greater than 1, synergistic interaction is present.
(§4) When disease fully developed on the control plants, infection levels were assessed on treated plants visually and scored on a scale of 0 to 100 percent. Percentage of disease control was then calculated using the ratio of disease on treated plants relative to control plants. […]

[2] = system: Phakopsora pachyrhizi, PHAKPA; assay: 3-day curative (3 DC) PHAKPA test on soybean seedlings; type: in vivo; conditions: alone; for pest or weed control at 0.024 ppm: rate 0.024 ppm; for pest or weed control at 0.195 ppm: rate 0.195 ppm; for pest or weed control at 0.049 ppm: rate 0.049 ppm
Method: as §1, §2, §3, §4

[3] = Phakopsora pachyrhizi, read-out: % DC obs
[4] = Phakopsora pachyrhizi, rate 0.39 ppm, read-out: % DC obs
[5] = Phakopsora pachyrhizi, rate 0.195 ppm, read-out: % DC obs
[6] = Phakopsora pachyrhizi, rate 0.78 ppm, read-out: % DC obs
[7] = Phakopsora pachyrhizi, rate 3.125 ppm, read-out: % DC obs
[8] = Phakopsora pachyrhizi, rate 37.5 ppm, read-out: % DC obs
[9] = Phakopsora pachyrhizi, rate 75 ppm, read-out: % DC obs
[10] = Phakopsora pachyrhizi, rate 0.19 ppm, read-out: % DC obs
[11] = Phakopsora pachyrhizi, rate 200 ppm, read-out: % DC obs
[12] = Phakopsora pachyrhizi, rate 0.012 ppm, read-out: % DC obs

Molecule: Fc1ccc([C@]2(Cn3cncn3)O[C@H]2c2ccccc2Cl)cc1 (racemic) [Epoxiconazole, rel-1-[[(2R,3S)-3-(2-chlorophenyl)-2-(4-fluorophenyl)oxiranyl]methyl]-1H-1,2,4-triazole]
- pest or weed control at 0.006 ppm [1, 3]: 3.7%
- pest or weed control at 0.024 ppm [1, 3]: 48.1%
- pest or weed control at 0.024 ppm [2, 3]: 0%

Molecule: CO/C=C(/C(=O)OC)c1ccccc1Oc1cc(Oc2ccccc2C#N)ncn1 [Azoxystrobin, methyl (αE)-2-[[6-(2-cyanophenoxy)-4-pyrimidinyl]oxy]-α-(methoxymethylene)benzeneacetate]
- pest or weed control at 0.024 ppm [1, 3]: 22.2%
- pest or weed control at 0.098 ppm ([1]; Phakopsora pachyrhizi, rate 0.098 ppm, read-out: % DC obs): 50.4%
- pest or weed control at 0.39 ppm [2, 4]: 31.7%

Molecule: Cn1cc(C(=O)Nc2cccc3c2C2CCC3C2=C(Cl)Cl)c(C(F)F)n1 (stereo not shown) [Benzovindiflupyr, N-[11-(dichloromethylidene)-3-tricyclo[6.2.1.0]undeca-2(7),3,5-trienyl]-3-(difluoromethyl)-1-methylpyrazole-4-carboxamide]
- % DC obs ([1]; rate 0.195 ppm): 3.7%
- % DC obs ([1]; rate 0.78 ppm): 11.1%
- % DC obs ([1]; rate 3.125 ppm): 80.0%
- % DC obs ([2]; rate 0.78 ppm): 11.7%

Molecule: Cn1cc(C(=O)Nc2ccc(F)cc2-c2ccc(Cl)c(Cl)c2)c(C(F)F)n1 [Bixafen, N-(3′,4′-dichloro-5-fluoro[1,1′-biphenyl]-2-yl)-3-(difluoromethyl)-1-methyl-1H-pyrazole-4-carboxamide]
- pest or weed control at 0.195 ppm [1, 5]: 0%
- pest or weed control at 0.78 ppm [2, 6]: 0%
- pest or weed control at 3.125 ppm [2, 7]: 0%

Molecule: N#Cc1c(Cl)c(Cl)c(Cl)c(C#N)c1Cl [Chlorothalonil, tetrachlorisophthalonitrile]
- pest or weed control at 37.5 ppm [1, 8]: 0%
- pest or weed control at 75 ppm [1, 9]: 87%
- pest or weed control at 37.5 ppm [2, 8]: 4.6%
- pest or weed control at 75 ppm [2, 9]: 13.7%
- pest or weed control at 150 ppm ([2]; Phakopsora pachyrhizi, rate 150 ppm, read-out: % DC obs): 18.3%

Molecule: CCC(=O)Oc1c(OC)ccnc1C(=O)N[C@@H](C)C(=O)O[C@@H](C)[C@@H](C)c1ccccc1C [Compound I]
- pest or weed control at 0.39 ppm [1, 4]: 79.2%
- pest or weed control at 1.56 ppm ([2]; Phakopsora pachyrhizi, rate 1.56 ppm, read-out: % DC obs): 77.6%

Molecule: [Cl-].[Cu+2].[Cu+2].[OH-].[OH-].[OH-] [Cu Oxychloride]
- % DC obs ([2]; rate 200 ppm): 13.7%

Molecule: CC(C1CC1)C(O)(Cn1cncn1)c1ccc(Cl)cc1 (stereo not shown) [Cyproconazole, 2-(4-chlorophenyl)-3-cyclopropyl-1-(1,2,4-triazol-1-yl)butan-2-ol]
- pest or weed control at 0.0015 ppm [1, 3]: 11.1%
- pest or weed control at 0.006 ppm [1, 3]: 3.7%
- pest or weed control at 0.024 ppm [1, 3]: 11.1%

Molecule: CC1COC(Cn2cncn2)(c2ccc(Oc3ccc(Cl)cc3)cc2Cl)O1 (stereo not shown) [Difenoconazole, 1-[[2-[2-chloro-4-(4-chlorophenoxy)phenyl]-4-methyl-1,3-dioxolan-2-yl]methyl]-1,2,4-triazole]
- pest or weed control at 0.19 ppm [1, 10]: 41.9%
- pest or weed control at 0.19 ppm [2, 10]: 18.3%

Molecule: CC(Cc1ccc(C(C)(C)C)cc1)CN1C[C@@H](C)O[C@@H](C)C1 (stereo partly drawn) [Fenpropimorph, (2S,6R)-4-[3-(4-tert-butylphenyl)-2-methylpropyl]-2,6-dimethylmorpholine]
- pest or weed control at 100 ppm ([2]; Phakopsora pachyrhizi, rate 100 ppm, read-out: % DC obs): 36.4%
- pest or weed control at 200 ppm [2, 11]: 61.9%

Molecule: Cn1cc(C(=O)Nc2ccccc2-c2cc(F)c(F)c(F)c2)c(C(F)F)n1 [Fluxapyroxad, 3-(difluoromethyl)-1-methyl-N-[2-(3,4,5-trifluorophenyl)phenyl]pyrazole-4-carboxamide]
- pest or weed control at 0.195 ppm [1, 5]: 3.7%
- pest or weed control at 0.78 ppm [1, 6]: 11.1%
- pest or weed control at 3.125 ppm [1, 7]: 80%
- pest or weed control at 0.195 ppm [2, 3]: 0%
- pest or weed control at 3.125 ppm [2, 7]: 17.6%

Molecule: CC(O)(Cn1cncn1)c1ccc(Oc2ccc(Cl)cc2)cc1C(F)(F)F (stereo not shown) [Mefentrifluconazole, 2-[4-(4-chlorophenoxy)-2-(trifluoromethyl)phenyl]-1-(1,2,4-triazol-1-yl)propan-2-ol]
- pest or weed control at 0.049 ppm [1, 3]: 9.9%
- pest or weed control at 0.195 ppm [1, 5]: 87%
- pest or weed control at 0.049 ppm [2, 3]: 43.7%
- pest or weed control at 0.195 ppm [2, 3]: 69.1%

Molecule: CNC(=O)/C(=N/OC)c1ccccc1Oc1ccccc1 [Metominostrobin, (2E)-2-methoxyimino-N-methyl-2-(2-phenoxyphenyl)acetamide]
- pest or weed control at 0.78 ppm [1, 6]: 0%
- pest or weed control at 3.125 ppm [1, 7]: 11.1%
- pest or weed control at 12.5 ppm [1, 3]: 64.4%
- pest or weed control at 0.78 ppm [2, 6]: 33.3%
- pest or weed control at 3.125 ppm [2, 7]: 67.6%

Molecule: CO/C=C(/C(=O)OC)c1ccccc1COc1cccc(C(F)(F)F)n1 [Picoxystrobin, methyl (E)-3-methoxy-2-[2-[[6-(trifluoromethyl)pyridin-2-yl]oxymethyl]phenyl]prop-2-enoate]
- pest or weed control at 0.195 ppm [1, 5]: 0%
- pest or weed control at 0.78 ppm [1, 6]: 80%
- % DC obs ([1]; rate 0.195 ppm): 0%
- % DC obs ([1]; rate 0.78 ppm): 80%
- pest or weed control at 0.049 ppm [2, 3]: 18.5%
- pest or weed control at 0.195 ppm [2, 3]: 14.8%
- pest or weed control at 0.78 ppm [2, 6]: 53.3%

Molecule: CCCC1COC(Cn2cncn2)(c2ccc(Cl)cc2Cl)O1 (stereo not shown) [Propiconazole, 1-[[2-(2,4-dichlorophenyl)-4-propyl-1,3-dioxolan-2-yl]methyl]-1,2,4-triazole]
- pest or weed control at 0.195 ppm [1, 5]: 19.9%
- pest or weed control at 0.78 ppm [1, 6]: 78%
- pest or weed control at 0.049 ppm [2, 3]: 9.2%
- pest or weed control at 0.195 ppm [2, 3]: 59.1%

Molecule: OC(Cc1ccccc1Cl)(Cn1[nH]cnc1=S)C1(Cl)CC1 (stereo not shown) [Prothioconazole, 2-[2-(1-chlorocyclopropyl)-3-(2-chlorophenyl)-2-hydroxypropyl]-1,2-dihydro-3H-1,2,4-triazole-3-thione]
- pest or weed control at 0.0015 ppm [1, 3]: 0%
- pest or weed control at 0.006 ppm [1, 3]: 7.4%

Molecule: CON(C(=O)c1cn(C)nc1C(F)F)C(C)Cc1c(Cl)cc(Cl)cc1Cl (stereo not shown) [Pydiflumetofen, 3-(difluoromethyl)-N-methoxy-1-methyl-N-[1-(2,4,6-trichlorophenyl)propan-2-yl]pyrazole-4-carboxamide]
- pest or weed control at 12.5 ppm [1, 3]: 0%
- pest or weed control at 50 ppm ([1]; Phakopsora pachyrhizi, rate 50 ppm, read-out: % DC obs): 15.3%
- pest or weed control at 200 ppm [1, 11]: 85.4%

Molecule: CC(C)(C)C(O)(CCc1ccc(Cl)cc1)Cn1cncn1 (stereo not shown) [Tebuconazole, 1-(4-chlorophenyl)-4,4-dimethyl-3-(1,2,4-triazol-1-ylmethyl)pentan-3-ol]
- pest or weed control at 0.0015 ppm [1, 3]: 0%
- pest or weed control at 0.006 ppm [1, 3]: 11.1%
- pest or weed control at 0.0015 ppm ([2]; Phakopsora pachyrhizi, rate 0.0015 ppm, read-out: % DC obs): 0%
- pest or weed control at 0.006 ppm ([2]; Phakopsora pachyrhizi, rate 0.006 ppm, read-out: % DC obs): 0%
- pest or weed control at 0.024 ppm [2, 3]: 11.7%

Molecule: FC(F)C(F)(F)OCC(Cn1cncn1)c1ccc(Cl)cc1Cl (stereo not shown) [Tetraconazole, 1-[2-(2,4-dichlorophenyl)-3-(1,1,2,2-tetrafluoroethoxy)propyl]-1,2,4-triazole]
- pest or weed control at 0.012 ppm [1, 12]: 0%
- pest or weed control at 0.049 ppm [1, 3]: 0%
- pest or weed control at 0.195 ppm [1, 5]: 90%
- pest or weed control at 0.012 ppm [2, 12]: 13.7%
- pest or weed control at 0.049 ppm [2, 3]: 13.7%

Molecule: CO/N=C(/C(=O)OC)c1ccccc1CO/N=C(\C)c1cccc(C(F)(F)F)c1 [Trifloxystrobin, methyl (2E)-2-methoxyimino-2-[2-[[(E)-1-[3-(trifluoromethyl)phenyl]ethylideneamino]oxymethyl]phenyl]acetate]
- pest or weed control at 0.195 ppm [2, 3]: 18.3%

Molecule: zinc manganese(2+)N-[2-(sulfidocarbothioylamino)ethyl]carbamodithioate [Mancozeb]
- % DC obs ([1]; rate 0.19 ppm): 3.8%
- % DC obs ([1]; rate 0.78 ppm): 0%
- % DC obs ([1]; rate 3.125 ppm): 0%
- % DC obs ([2]; rate 0.19 ppm): 14.8%
- % DC obs ([2]; rate 0.78 ppm): 14.8%
- % DC obs ([2]; rate 3.125 ppm): 0%
- % DC obs ([2]; rate not given): 0%
